Measured values reported in patent publication US20240263138A1, “METHODS FOR PREPARING A FOOD INGREDIENT AND COMPOSITIONS PRODUCED THEREBY” (SuperMeat the Essence of Meat Ltd., priority 2021, published 2024).

Tested on: SM ES cells
Assay: Direct differentiation of SM ES cells cultured with oleic acid
Assay type: cell-based, chicken
Details: culturing in the presence of 300 uM, direct differentiation protocol
Description: As used herein “direct differentiation protocol” refers to the addition of FAs at high concentrations to a stem cell culture e.g., pluripotent stem cells, (above 25 uM or above 100 uM, when serum is absent or present in the culture) stem cells in order to allow the cells to accumulate fat. […] Next step was to test the ability to control the fatty acid profile of SM ES cells by growing the cells in the presence of certain or several fatty acids (FAs), dependent on the selected edible species.

## CCCCCCCC/C=C\CCCCCCCC(=O)O [oleic acid]
  proportion of oleic acid (OA) within cells: double
